Columns and labels:
[1] = system: IL-2 production by activated CD4+ T cells; experiment: Inhibition of IL-2 production by activated CD4+ T cells (flow cytometry); assay type: cell-based; conditions: mouse spleen cells activated with ConA, anti-CD3/CD28 for 4 hours
Experimental: Total spleen cells were isolated from C57/B 6 mice and then were preactivated with ConA (1 ug/mL, Sigma-Aldrich, St. Louis, Mo.) for 2 days. These cells were then treated for 4 hours with cross-linked Hamster anti-mouse CD3/CD28 (1 ug/mL, BD Bioscience) antibodies in the Bruff's Medium containing 5% fetal bovine serum and 1× brefeldin A. After the activation, cells were fixed and analyzed for IL-2 production in the activated CD4± T cells using APC-conjugated anti-mouse IL-2 and PE-conjugated anti-mouse CD4 antibodies by flow cytometry.

[2] = system: human peripheral blood mononuclear cells (PBMCs); experiment: Toxicity to peripheral blood mononuclear cells (7-AAD / Annexin V flow cytometry); conditions: 24 and 48 hours of culture, versus DMSO controls; cyclosporin result at or above Bug/ml
Experimental: The cells (PBMCs) were then stained with 7-AAD and Annexin V directly conjugated to FITC or PE and subjected to flow cytometry. The percentage of necrotic (7-AAD+/Annexin V+), apoptotic (7-AAD-/Annexin V+) and viable (7-AAD-/Annexin V−) cells were calculated using CellQuest software (BD Biosciences). […] Error bars represent standard deviations between triplicate treatment groups.
Blood was collected from healthy adult donors and peripheral blood mononuclear cells (PBMCs) were purified using Histopaque 1077 (Sigma Aldrich, St. Louis, Mo.) according to the manufacturer's instructions. […] Cells were washed twice with PBS followed by staining with Annexin V directly conjugated to PE or FITC and 7-AAD using the Annexin V Apoptosis Detection Kit I (BD Biosciences, San Jose, Calif.) as per the manufacturer's instructions. Cells were then subjected to flow cytometry on a FACS Calibur equipped with an HTS loader (BD Biosciences, San Jose, Calif.). The staining allowed for differentiation among viable, necrotic and apoptotic cells. The studies were repeated at least three times and the variation between the dead cells detected was recorded as a function of concentration over 24 and 48 hour test periods.

Aspergillus fumigatus = experiment: Minimum inhibitory concentration (MIC), 24-well plate, potato dextrose broth; assay type: cell-based
Experimental: (§1) All plant pathogenic fungi used in the bioassay test system were obtained from Drs. Don Mathre and Nina Zidak of the MSU Department of Plant Sciences. All fungi were grown on potato dextrose agar (PDA) at 23° C. and only freshly transferred cultures (4-7 days old) were used in the fungal bioassay tests.
(§2) Assays were performed in sterile 24-well plates with each well containing 500 μl of potato dextrose broth. The plates were incubated from 48-288 hours at 25 C. The MIC was defined as the minimum concentration of compound resulting in no visible growth of the test organism. The compounds were dissolved in methanol which represented less than 0.5% total methanol in each test well. Several small plugs of agar 3×3×3 mm containing actively growing test fungi were then placed into each well with some wells serving as controls.

Fusarium solani = experiment: as above; assay type: cell-based
Experimental: as §1, §2

Geotrichum canididum = experiment: as above; assay type: cell-based
Experimental: as §1, §2

Botrytis cinerea = experiment: as above; assay type: cell-based
Experimental: as §1, §2

Pythium ultimum = experiment: as above; assay type: cell-based
Experimental: as §1, §2

Sclerotinia sclerotiorum = experiment: as above; assay type: cell-based
Experimental: as §1, §2

Rhizoctonia solani = experiment: as above; assay type: cell-based
Experimental: as §1, §2

Trichoderma virde = experiment: as above; assay type: cell-based
Experimental: as §1, §2

cyclic lipopeptide with a molecular mass of 1127.7 produced by C. dematium fungus CR-12; contains Val-Ile-Ser-Ile [Colutellin A, colutellin A]
IC50 [1]: 167 nM
Cytotoxicity on human PBMCs (necrosis and apoptosis) [2]: did not induce significant cell death above the DMSO controls at any concentration tested
MIC (Aspergillus fumigatus; after 48 h): 2.4 µg/mL
MIC (Aspergillus fumigatus; after 144 h): >100 µg/mL
MIC (Aspergillus fumigatus; after 288 h): >100 µg/mL
MIC (Fusarium solani; after 48 h): 7.2 µg/mL
MIC (Fusarium solani; after 144 h): >100 µg/mL
MIC (Fusarium solani; after 288 h): >100 µg/mL
MIC (Geotrichum canididum; after 48 h): 3.6 µg/mL
MIC (Geotrichum canididum; after 144 h): >100 µg/mL
MIC (Geotrichum canididum; after 288 h): >100 µg/mL
MIC (Botrytis cinerea; after 48 h): 3.6 µg/mL
MIC (Botrytis cinerea; after 144 h): 10.8 µg/mL
MIC (Botrytis cinerea; after 288 h): 10.8 µg/mL
MIC (Pythium ultimum; after 48 h): >100 µg/mL
MIC (Pythium ultimum; after 144 h): >100 µg/mL
MIC (Pythium ultimum; after 288 h): >100 µg/mL
MIC (Sclerotinia sclerotiorum; after 48 h): 3.6 µg/mL
MIC (Sclerotinia sclerotiorum; after 144 h): 10.8 µg/mL
MIC (Sclerotinia sclerotiorum; after 288 h): 32.4 µg/mL
MIC (Rhizoctonia solani; after 48 h): >100 µg/mL
MIC (Rhizoctonia solani; after 144 h): >100 µg/mL
MIC (Rhizoctonia solani; after 288 h): >100 µg/mL
MIC (Trichoderma virde; after 48 h): >100 µg/mL
MIC (Trichoderma virde; after 144 h): >100 µg/mL
MIC (Trichoderma virde; after 288 h): >100 µg/mL

Source: patent publication US8765147B2, “Endophytic fungi from Pteromischum sp. plant, compounds and methods of use” (The Regents of the University of California, priority 2007, dated 2014)
